Data as given in the NIST ThermoML archive (doi:10.1021/je900597n).
Several values for one entry are separate records, joined by “and”; a condition that tells them apart may be missing. Equal values may be shown once.

Key:
[1] = 101 kPa, Liquid; for speed of sound: Pulse-echo method
[2] = xn = mol fraction of the nth substance listed; conditions: 101 kPa, Liquid

COC(C)(C)C [2-methoxy-2-methylpropane]
[1]
Conditions | mass density [kg/m3] | speed of sound
288.15 K | 747.273 | 1086.6 m/s and 1086.9 m/s
293.15 K | 742.072 | 1063.4 m/s
298.15 K | 736.826 | 1040.3 m/s
303.15 K | 731.532 | 1017.4 m/s
308.15 K | 726.185 | 994.68 m/s

COC(C)(C)C [2-methoxy-2-methylpropane] + CCCN
[2], x1 = 1
Conditions | mass density [kg/m3] | speed of sound [m/s]
288.15 K | 747.273 | 1086.6
293.15 K | 742.072 | 1063.4
298.15 K | 736.826 | 1040.3
303.15 K | 731.532 | 1017.4
308.15 K | 726.185 | 994.68

COC(C)(C)C [2-methoxy-2-methylpropane] + CCCNCCC
[2], Pulse-echo method, x1 = 1
Conditions | speed of sound [m/s]
288.15 K | 1086.9
293.15 K | 1063.4
298.15 K | 1040.3
303.15 K | 1017.4
308.15 K | 994.68

[2], x1 = 1
Conditions | mass density [kg/m3]
288.15 K | 747.273
293.15 K | 742.072
298.15 K | 736.826
303.15 K | 731.532
308.15 K | 726.185

CCCNCCC [dipropylamine]
[1]
Conditions | mass density [kg/m3] | speed of sound [m/s]
288.15 K | 745.064 | 1235.1
293.15 K | 740.501 | 1213.4
298.15 K | 735.924 | 1191.9
303.15 K | 731.333 | 1170.4
308.15 K | 726.732 | 1149

CCCN [propan-1-amine]
[1]
Conditions | mass density [kg/m3] | speed of sound [m/s]
288.15 K | 725.08 | 1266.1
293.15 K | 719.859 | 1242
298.15 K | 714.586 | 1218
303.15 K | 709.269 | 1194
308.15 K | 703.911 | 1169.9

CCCN [propan-1-amine] + COC(C)(C)C
[2]
Conditions | mass density, 288.15 K [kg/m3] | mass density, 293.15 K [kg/m3] | mass density, 298.15 K [kg/m3] | mass density, 303.15 K [kg/m3] | mass density, 308.15 K [kg/m3] | speed of sound, 288.15 K [m/s] | speed of sound, 293.15 K [m/s] | speed of sound, 298.15 K [m/s] | speed of sound, 303.15 K [m/s] | speed of sound, 308.15 K [m/s]
x2 = 0 | 725.08 | 719.859 | 714.586 | 709.269 | 703.911 | 1266.1 | 1242 | 1218 | 1194 | 1169.9
x2 = 0.0709 | 727.856 | 722.621 | 717.583 | 712.014 | 706.643 | 1251.4 | 1227.2 | 1203.1 | 1179.1 | 1155.3
x2 = 0.0971 | 729.03 | 723.784 | 718.729 | 713.152 | 707.762 | 1244 | 1220 | 1196 | 1172.2 | 1148.2
x2 = 0.2112 | 733 | 727.745 | 722.617 | 717.065 | 711.678 | 1214.4 | 1190.5 | 1166.5 | 1142.9 | 1119.1
x2 = 0.2915 | 734.914 | 729.567 | 724.408 | 718.869 | 713.452 | 1204.2 | 1180.3 | 1156.2 | 1132.6 | 1109
x2 = 0.3956 | 737.188 | 731.938 | 726.763 | 721.277 | 715.895 | 1174.4 | 1150.7 | 1127 | 1103.4 | 1079.8
x2 = 0.5551 | 740.109 | 734.863 | 729.642 | 724.214 | 718.801 | 1146 | 1122.5 | 1098.9 | 1075.4 | 1052.2
x2 = 0.7171 | 742.564 | 737.327 | 732.071 | 726.691 | 721.338 | 1120.6 | 1097.1 | 1073.7 | 1050.5 | 1027.3
x2 = 0.7747 | 743.456 | 738.22 | 732.941 | 727.578 | 722.269 | 1111.6 | 1088 | 1064.5 | 1041 | 1017.8
x2 = 0.8604 | 744.503 | 739.27 | 733.994 | 728.673 | 723.302 | 1101.2 | 1077.8 | 1054.2 | 1030.9 | 1007.5
x2 = 0.9268 | 745.6 | 740.382 | 735.117 | 729.806 | 724.452 | 1094.2 | 1070.7 | 1047.5 | 1024.2 | 1001.1
